Reference: patent publication US20200024347A1, “OR10H1 ANTIGEN BINDING PROTEINS AND USES THEREOF” (iOmx Therapeutics AG, priority 2016, published 2020)

Assays:
Format in all cases: cell-based, human
OR10H1 = assay: Stable lentiviral shRNA knock-down of OR10H1 in M579-A2
M579-A2-luc cells [1] = assay: Luc-CTL cytotoxicity assay, TIL412-mediated killing of M579-A2-luc
Excerpt: It was surprising to find that all siRNAs show an impact on TIL412-mediated killing of M579-A2-luc at 5:1 Effector to Target cell (E:T) ratio (FIG. 1B). Transfection of M579-A2-luc cells with OR10H1 siRNA 1 increased HLA-matched patient-derived tumor-infiltrating lymphocyte (TIL, clone 412)-mediated killing to 70% (30% remaining melanoma cells compared to a scrambled negative control siRNA; p=<0.0001). This increase in TIL-mediated lysis is stronger than for PD-L1 positive control knock-down (39% remaining cells).
(§1) The effects of siRNA knock-down on TIL-mediated killing and lysis in a chromium release assay were investigated as described in Khandelwal et al, 2015 (EMBO Mol Med 7:450-63). Tumor-infiltrating lymphocytes 412 and 209 microcultures were expanded from an inguinal lymph node of a melanoma patient as described in Dudley et al, 2010 (Clin Cancer Res 16:6122-31). M615, TIL615 and other patient-derived TIL cells were obtained analogously as described in Dudley et al, 2010. M579-A2-luc cells and M615-luc cells were produced from M579-A2 and M615, respectively (Machlenkin et al, 2008; Cancer Res 68:2006-13).

OR10H1 mRNA = assay: RT-PCR of OR10H1 mRNA after siRNA transfection; conditions: M579-A2 cells, 72 h after transfection
Experimental: SMART pool siRNA against OR10H1 (GE Dharmacon) were tested (by RT-PCR) for their activity in downregulating OR10H1 mRNA in M579 (melanoma) cells. […] Details of the respective siRNAs are set out in Table E1.

M579-A2 cells = assay: Chromium release assay, lysis of M579-A2 by TIL209; conditions: TIL209, 12.5 E:T ratio, 4 h co-culture
Experimental: TIL-mediated lysis of M579-A2 was validated in chromium release assay (4 h co-culture). […] Indeed, this effect of OR10H1 knock-down was stronger than the PD-L1 positive control knock-down (41% specific lysis at 12.5 E:T ratio; FIG. 1C).
as §1

[2] = tested on: SW480 colorectal cancer cells; assay: Chromium release assay, lysis of SW480 by HLA-matched TILs; conditions: SW480, 50:1 E:T ratio, 4 h co-culture
Experimental: (§2) Furthermore, it was tested whether OR10H1 knock-down also has an effect in other cancers. […] SW480 (ATCC) and PANC-1 cells were analyzed for their expression of OR10H1 (see above) and the knock-down efficacy of the siRNAs were validated. The CRC cell line SW480 and the PANC-1 cell line were each co-cultured with corresponding HLA-matched TILs for chromium release (4 h co-culture). OR10H1 siRNA 1 almost tripled the lysis of SW480 by TILs in all effector to target ratios compared to the negative control siRNA (33% to 12.8% specific lysis at 50:1 E:T ratio; FIG. 1E). Indeed, knock-down of OR10H1 was almost as effective as knock-down of PD-L1 positive control on TIL-mediated lysis (FIG. 1E). Such effect was also surprising to see in pancreatic cancer cells: knock-down of OR10H1 (siRNA 1) doubled the lysis of PANC-1 by TILs in all effector to target ratios compared to the negative control siRNA (53% to 26% specific lysis at 50:1 E:T ratio; FIG. 1F).
(§3) The effects of siRNA knock-down on TIL-mediated killing and lysis in a chromium release assay were investigated as described in Khandelwal et al, 2015 (EMBO Mol Med 7:450-63). Tumor-infiltrating lymphocytes 412 and 209 microcultures were expanded from an inguinal lymph node of a melanoma patient as described in Dudley et al, 2010 (Clin Cancer Res 16:6122-31). […]

[3] = tested on: PANC-1 pancreatic adenocarcinoma cells; assay: Chromium release assay, lysis of PANC-1 by HLA-matched TILs; conditions: PANC-1, 50:1 E:T ratio, 4 h co-culture
Experimental: as §2, §3

TIL412 = assay: Luminex cytokine secretion of TIL412 after co-culture with M579-A2; conditions: 20 h co-culture
M579-A2-luc cells [4] = tested on: M579-A2-luc cells

OR10H1 shRNA 4: shRNA against OR10H1, TCTGCTGAAGGTCGGAACAAG, Sigma Aldrich TRCN0000357708, SEQ ID No. 31 (the letters are possibly those of the target site; listed as Homo sapiens)
impact on OR10H1 expression and functionality (OR10H1): strongest impact

OR10H1 siRNA 1: siRNA against OR10H1, GGAGACACCUUGAUGGGCA, GE Dharmacon D-020479-01, SEQ ID No. 24 (listed as RNA, chemistry not given here; listed as Homo sapiens)
TIL-mediated killing (M579-A2-luc cells [1]; TIL412, 5:1 E:T ratio): 70% | remaining melanoma cells compared to scrambled negative control siRNA (M579-A2-luc cells [1]; TIL412, 5:1 E:T ratio): 30% | knock-down of OR10H1 mRNA (RT-PCR) (OR10H1 mRNA): complete absence | specific lysis (M579-A2 cells): 57% | specific lysis [2]: 33% | specific lysis [3]: 53% | decrease of IL-6 secretion (TIL412): 37% | decrease of MCP-1 secretion (TIL412): 39% | increase of IFN-gamma secretion compared to negative control (TIL412): 8% | increase of IL-2 secretion (TIL412): 58% | IFN-gamma secretion (TIL412; supernatant): 3037 pg/mL | IL-2 secretion (TIL412; supernatant): 1701 pg/mL | IL-4 secretion (TIL412; supernatant): 11.8 pg/mL | IL-6 secretion (TIL412; supernatant): 31 pg/mL | MCP-1 secretion (TIL412; supernatant): 4035 pg/mL | decrease of IL-4 secretion (TIL412; trend): 20%

OR10H1 siRNA 2: siRNA against OR10H1, AGUAAACUCUACCCAGAAA, GE Dharmacon D-020479-02, SEQ ID No. 25 (listed as RNA, chemistry not given here; listed as Homo sapiens)
knock-down of OR10H1 mRNA (RT-PCR) (OR10H1 mRNA): weaker but clear reduction

OR10H1 siRNA 3: siRNA against OR10H1, GCAGAGAGCCAAUCACUCC, GE Dharmacon D-020479-03, SEQ ID No. 26 (listed as RNA, chemistry not given here; listed as Homo sapiens)
effect on M579-A2-luc viability (M579-A2-luc cells [1]; without the presence of TILs): shows an effect | knock-down of OR10H1 mRNA (RT-PCR) (OR10H1 mRNA): strong reduction

OR10H1 siRNA 4: siRNA against OR10H1, GGUCGUGCACUAUGGCUUU, GE Dharmacon D-020479-04, SEQ ID No. 27 (listed as RNA, chemistry not given here; listed as Homo sapiens)
knock-down of OR10H1 mRNA (RT-PCR) (OR10H1 mRNA): weaker but clear reduction

cholera toxin
TIL-mediated lysis (M579-A2-luc cells [4]): around 30% | effect on OR10H1 knockdown-mediated increase in TIL-mediated tumor lysis (M579-A2-luc cells [4]): abrogated | effect on TIL-mediated tumor lysis in OR10H1 siRNA transfected (OR10H1-negative) M579-A2-luc (M579-A2-luc cells [4]): dramatically decreases | effect on TIL-mediated tumor lysis in control siRNA transfected M579-A2-luc (M579-A2-luc cells [4]): slight decrease

pertussis toxin
effect on TIL-mediated tumor lysis in OR10H1 siRNA transfected (OR10H1-negative) M579-A2-luc (M579-A2-luc cells [4]): not observed | effect on TIL-mediated tumor lysis in control siRNA transfected M579-A2-luc (M579-A2-luc cells [4]): slightly decreased
